Assay results from patent publication US7709024B2, “Sustained-release formulation and uses thereof” (Solvay Pharmaceuticals B.V., priority 2005, dated 2010).

Assays:
[1] = Comparative equilibrium solubility of salts of compound 1; conditions: pH listed with the equilibrium solubility
D2 receptors = D2 receptors (Homo sapiens, UniProt P14416); conditions: therapeutic models, WO 01/14330; cited from earlier work
5HT reuptake = conditions: therapeutic models, WO 01/14330; cited from earlier work
[2] = in vivo; cited from earlier work
rodents = conditions: cited from earlier work

Chain of D2 receptors (P14416 whole entry): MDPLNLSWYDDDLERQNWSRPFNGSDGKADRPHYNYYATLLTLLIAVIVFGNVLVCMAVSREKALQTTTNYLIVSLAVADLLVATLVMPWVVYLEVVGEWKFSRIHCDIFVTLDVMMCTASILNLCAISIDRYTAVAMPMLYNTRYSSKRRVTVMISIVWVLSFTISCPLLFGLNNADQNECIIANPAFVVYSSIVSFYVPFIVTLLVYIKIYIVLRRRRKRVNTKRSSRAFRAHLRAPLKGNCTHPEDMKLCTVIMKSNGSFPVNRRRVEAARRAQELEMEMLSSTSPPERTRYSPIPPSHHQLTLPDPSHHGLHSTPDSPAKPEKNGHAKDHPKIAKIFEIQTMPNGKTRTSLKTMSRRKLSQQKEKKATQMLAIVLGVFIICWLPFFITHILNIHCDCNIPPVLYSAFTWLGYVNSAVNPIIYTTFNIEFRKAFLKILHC

SMILES	pH ([1]; listed as glucuronate (2))	antagonistic activity at D2 receptors (D2 receptors)	inhibitory activity against 5HT reuptake (5HT reuptake)	activity in therapeutic models sensitive to clinically relevant antipsychotics, antidepressants, anxiolytics, and Parkinson's disease [2]	propensity to induce catalepsy (rodents)	pH ([1]; listed as freebase (1))
CC1Oc2c(cccc2N2CCN(CCCc3c[nH]c4ccc(F)cc34)CC2)NC1=O (stereo not drawn) [compound 2]	4.25	–	–	–	–	–
CC1Oc2c(cccc2N2CCN(CCCc3c[nH]c4ccc(F)cc34)CC2)NC1=O (stereo not drawn) [compound 1, 8-{4-[3-(5-fluoro-1H-indol-3-yl)-propyl]-piperazin-1-yl}-2-methyl-4H-benzo[1,4]oxazin-3-one]	–	antagonistic activity at D2 receptors	inhibitory activity against 5HT reuptake	active	low propensity to induce catalepsy	4.72
